This series is described as follows: Relative cell viability in HCHT screening (propidium iodide negative nuclei count). Type of series: cell-based. To be noted: human, HeLa, read-out: GI50, concentration causing 50% cell growth inhibition. In a few lines:
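HeLa cells pre-incubated with inhibitors at varying concentrations and times, inhibitors removed (or retained in co-incubation variant), then fluorescent reporter added. Live cells counted by automated microscopy as propidium iodide-negative nuclei, normalised to reporter-only wells; GI50 and Hill coefficient fitted from duplicates.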

The mark [1] stands for this setting: tpre 0.5 h, then tco 0.5 h co-incubation of inhibitor and 1 (10 µM).
Setting [2] is: tpre 0.5 h, then tco 0.5 h co-incubation of inhibitor and 2 (10 µM).
Setting [3] is: tpre 0.5 h with inhibitor, removal, tinc 0.5 h with 1 (10 µM).
Where [4] appears, read: tpre 1 h with inhibitor, removal, tinc 0.5 h with 1 (10 µM).
Setting [5] is: tpre 1 h with inhibitor, removal, tinc 0.5 h with 2 (10 µM).
[6] abbreviates: tpre 2 h with inhibitor, removal, tinc 0.5 h with 1 (10 µM).
The mark [7] stands for this setting: tpre 4 h with inhibitor, removal, tinc 0.5 h with 1 (10 µM).
Where [8] appears, read: tpre 5.5 h with FBS, then tco 0.5 h co-incubation of inhibitor and 1 (10 µM).
The mark [9] stands for this setting: tpre 6 h with FBS, removal, tinc 0.5 h with 2 (10 µM).
The mark [10] stands for this setting: tpre 23.5 h with FBS, then tco 0.5 h co-incubation of inhibitor and 1 (10 µM).
Where [11] appears, read: tpre 4 h with inhibitor, removal, tinc 0.5 h with 2 (10 µM).
[12] abbreviates: tpre 23.5 h with FBS, then tco 0.5 h co-incubation of inhibitor and 2 (10 µM).
Where [13] appears, read: HeLa Kyoto cells, tpre 0.5 h, then tco 0.5 h co-incubation of inhibitor and 2 (10 µM).
Setting [14] is: HeLa Kyoto cells, tpre 0.5 h with inhibitor, removal, tinc 0.5 h with 1 (10 µM).
Setting [15] is: HeLa Kyoto cells, tpre 1 h with inhibitor, removal, tinc 0.5 h with 1 (10 µM).
The mark [16] stands for this setting: HeLa Kyoto cells, tpre 1 h with inhibitor, removal, tinc 0.5 h with 2 (10 µM).
The mark [17] stands for this setting: HeLa Kyoto cells, tpre 1.5 h, then tco 0.5 h co-incubation of inhibitor and 2 (10 µM).
Setting [18] is: HeLa Kyoto cells, tpre 2 h with inhibitor, removal, tinc 0.5 h with 1 (10 µM).
Where [19] appears, read: HeLa Kyoto cells, tpre 2 h with inhibitor, removal, tinc 0.5 h with 2 (10 µM).
Where [20] appears, read: HeLa Kyoto cells, tpre 4 h with inhibitor, removal, tinc 0.5 h with 2 (10 µM).

Read-outs that look alike come from different tables or passages of the source. Bridge positions count the residues as written; N and C are the ends. Peptide text beside a SMILES is read from it.

For the molecule `CCN1C(=O)C2SSSSC1C(=O)N2CC(=O)O` (stereo not shown) [compound 3], the GI50 reads like this: under setting [1], 13.3 ± 0.8 µM; under setting [2], about 20 µM; under setting [3], 34 ± 2.9 µM; under setting [4], 35 ± 4.4 µM; under setting [5], over 20 µM; under setting [6], 46.1 ± 4.8 µM. The GI50 reads like this: under setting [7], over 50 µM; under setting [8], over 50 µM; under setting [9], over 100 µM; under setting [10], over 50 µM.
As for `CCN1C(=O)C2SSC1C(=O)N2CC(=O)O` (stereo not shown) [compound 4], the GI50 was about 8.4 µM under setting [1]; about 20 µM under setting [2]; over 100 µM under setting [3]; 12.5 ± 0.7 µM under setting [4]; over 20 µM under setting [5]; about 9.2 µM under setting [6]. Further, the GI50 was 6.4 ± 0.3 µM under setting [7], about 4 µM under setting [11], over 20 µM under setting [8] and over 20 µM under setting [10].
Consider `O=C(O)CNC(=O)c1ccc2c(c1)SSSSS2` [compound 6], for which the GI50 by setting is: under setting [1], over 20 µM; under setting [2], over 20 µM; under setting [3], over 100 µM; under setting [4], about 98 µM; under setting [6], about 45 µM; under setting [7], about 44 µM. Further, the GI50 was about 17 µM under setting [11], over 20 µM under setting [8], about 105 µM under setting [9] and over 20 µM under setting [10].
For `O=C(CN1C(=O)C2SSC1C(=O)N2CCOc1ccccc1)NCC(=O)OC[C@H]1OC(O)[C@H](O)[C@@H](O)[C@@H]1O` (stereo partly shown) [compound 7], the GI50 under setting [3] was over 100 µM; the GI50 under setting [4] is over 100 µM; the GI50 under setting [6] is over 100 µM; the GI50 under setting [11] was over 100 µM; the GI50 under setting [8] was over 100 µM; the GI50 under setting [9] is over 200 µM. Moreover, the GI50 was over 100 µM under setting [10] and over 100 µM under setting [12].
`O=C(O)CC[C@H](NC(=O)CN1C(=O)C2SSC1C(=O)N2CCOc1ccccc1)C(=O)O` (stereo partly shown) [compound 9]: the GI50 under setting [3] was over 100 µM; the GI50 under setting [4] is over 100 µM; the GI50 under setting [6] was over 100 µM; the GI50 under setting [11] was over 100 µM; the GI50 under setting [9] was over 200 µM.
On to `O=C(O)CC[C@H](NC(=O)CCCCC1CCSS1(=O)=O)C(=O)O` (stereo partly shown) [compound 15], for which the GI50 under setting [3] is over 500 µM; the GI50 under setting [4] is over 500 µM; the GI50 under setting [6] was over 500 µM; the GI50 under setting [11] was over 500 µM; the GI50 under setting [8] is over 1000 µM; the GI50 under setting [10] came out at 944 ± 60 µM. The GI50 under setting [12] was over 500 µM.
Take `O=S1(=O)C[C@H](O)[C@H](O)CS1` [compound 16]: the GI50 under setting [4] is 1300 ± 490 µM, the GI50 under setting [11] is over 500 µM, the GI50 under setting [8] was over 1000 µM and the GI50 under setting [10] amounted to 490 ± 60 µM.
In the case of `[O-][S+]1CC(O)C(O)CS1` (stereo not shown) [compound 17], the GI50 runs as follows: under setting [1], over 500 µM; under setting [8], over 1000 µM; under setting [10], 450 ± 50 µM.
`N[C@H]1CSSC[C@@H](C(=O)NCC(=O)O)NC(=O)[C@H](CCC(=O)O)NC1=O` [compound 18] (H-CECG-OH; disulfide 1-3): the GI50 at 1 h (HeLa Kyoto cells, tpre 0.5 h, then tco 0.5 h co-incubation of inhibitor and 1 (10 µM)) is over 500 µM; the GI50 at 1 h under setting [13] is over 500 µM; the GI50 at 1 h under setting [15] is over 2000 µM; the GI50 at 1 h under setting [16] was over 1000 µM. For the same molecule, the GI50 at 0.5 h under setting [14] was over 2000 µM. Further, the GI50 at 2 h by setting is: under setting [17], over 500 µM; under setting [18], over 2000 µM; under setting [19], over 1000 µM. Under setting [20], the GI50 at 4 h is over 1000 µM. Besides, the GI50 at 6 h (HeLa Kyoto cells, tpre 5.5 h with FBS, then tco 0.5 h co-incubation of inhibitor and 1 (10 µM)) was over 1000 µM. Moreover, the GI50 at 24 h (HeLa Kyoto cells, tpre 23.5 h with FBS, then tco 0.5 h co-incubation of inhibitor and 1 (10 µM)) was over 1000 µM.
For the molecule `N[C@H]1CSSC[C@@H](C(=O)N[C@@H](CCC(=O)O)C(=O)O)NC(=O)CNC1=O` [compound 19] (H-CGCE-OH; disulfide 1-3), the GI50 at 1 h by setting is: under setting [13], over 500 µM; under setting [15], over 2000 µM; under setting [16], over 1000 µM. Moreover, under setting [14], the GI50 at 0.5 h was over 2000 µM. Moreover, the GI50 at 2 h by setting is: under setting [17], over 500 µM; under setting [18], over 2000 µM; under setting [19], over 1000 µM. In addition, the GI50 at 4 h under setting [20] is over 1000 µM.

Source of the values: article PMC8179002, “Inhibitors of thiol-mediated uptake” (Chemical Science, 2020).
